{"source": "patent US10307140B2", "about": "“Device for detection of hepatocellar carcinoma (HCC) using an octanoate breath test” (EXALENZ BIOSCIENCE LTD., priority 2011, dated 2019)", "origin": "cited, not measured here", "tested_on": "liver mitochondria", "details": "HCC patients", "note": "Like-named read-outs stand apart in the source and are kept apart here.", "data": [{"smiles": "CC(C)CC(=O)C(=O)O", "note": "[KICA, ketoisocaproate]", "values": [{"measurement": "change of ketoisocaproate decarboxylation", "setting": "after RFA, P<0.05", "result": "−27", "unit": "%"}, {"measurement": "change of ketoisocaproate decarboxylation", "setting": "after TACE", "result": "unaffected"}]}]}
